Data on 3 compounds can be found in ChEMBL document CHEMBL1949614, “Advent of Imidazo[1,2-a]pyridine-3-carboxamides with Potent Multi- and Extended Drug Resistant Antituberculosis Activity” (ACS Med Chem Lett, 2011).

≈ marks a conversion by molar mass, not a printed value.

Common to all, as to format: functional
The subject of experiment [1] is Mycobacterium tuberculosis. Briefly: Antitubercular activity against extensively drug-resistant isoniazid, rifampicin, ethambutol, kanamycin, p-aminosalicylic acid, ethionamide/thioacetazone, ofloxacin-resistant Mycobacterium tuberculosis clinical isolate by microbroth dilution assay.
For experiment [2], the system named is Mycobacterium tuberculosis. Put plainly: Antitubercular activity against multidrug-resistant isoniazid, rifampicin, ethambutol, pyrazinamide, rifabutin, thioacetazone/ethionamide-resistant Mycobacterium tuberculosis clinical isolate by microbroth dilution assay.
Experiment [3] relates to Mycobacterium tuberculosis. Briefly: Antitubercular activity against multidrug-resistant isoniazid, rifampicin, ethambutol, rifabutin-resistant Mycobacterium tuberculosis clinical isolate by microbroth dilution assay.
In experiment [4] the test system is Mycobacterium tuberculosis. Briefly: Antitubercular activity against multidrug-resistant isoniazid, rifampicin, ethambutol, pyrazinamide, streptomycin, kanamycin, p-aminosalicylic acid, ethionamide/thioacetazone-resistant Mycobacterium tuberculosis clinical isolate by microbroth dilution assay. For orientation: Dilution methods test growth across graded concentrations, often in twofold steps.

For experiment [5], the system named is Mycobacterium tuberculosis. Put plainly: Antitubercular activity against extensively drug-resistant isoniazid, rifampicin, ethambutol, streptomycin, cycloserine, p-aminosalicylic acid, ethionamide/thioacetazone, ofloxacin-resistant Mycobacterium tuberculosis clinical isolate by microbroth dilution assay.
The test system of experiment [6] is Mycobacterium tuberculosis. Put plainly: Antitubercular activity against multidrug-resistant isoniazid, cycloserine, p-aminosalicylic acid, ethionamide/thioacetazone-resistant Mycobacterium tuberculosis clinical isolate by microbroth dilution assay.
The subject of experiment [7] is Mycobacterium tuberculosis. Put plainly: Antitubercular activity against multidrug-resistant isoniazid, rifampicin, ethambutol, pyrazinamide, streptomycin, p-aminosalicylic acid-resistant Mycobacterium tuberculosis clinical isolate by microbroth dilution assay.
The test system of experiment [8] is Mycobacterium tuberculosis. Briefly: Antitubercular activity against multidrug-resistant isoniazid, rifampicin, ethambutol, streptomycin, p-aminosalicylic acid-resistant Mycobacterium tuberculosis by microbroth dilution assay.
Experiment [9] relates to Mycobacterium tuberculosis. Put plainly: Antitubercular activity against extensively drug-resistant isoniazid, rifampicin, ethambutol, streptomycin, p-aminosalicylic acid, ofloxacin-resistant Mycobacterium tuberculosis clinical isolate by microbroth dilution assay.
Experiment [10] deals with Mycobacterium tuberculosis. Briefly: Antitubercular activity against multidrug-resistant isoniazid, rifampicin, ethambutol, kanamycin, p-aminosalicylic acid-resistant Mycobacterium tuberculosis clinical isolate by microbroth dilution assay.

Take `Cc1ccn2c(C(=O)NCc3ccccc3)c(C)nc2c1`: the MIC90 (commonly an inhibitory concentration at the 90% level, which refers to growth in some studies and to a panel of isolates in others) in experiment [1] was 0.07 µM (≈ 0.0196 µg/mL); in experiment [2], 0.14 µM (≈ 0.0391 µg/mL); in experiment [3] it was 0.14 µM (≈ 0.0391 µg/mL); in [4], 0.07 µM (≈ 0.0196 µg/mL); in [5], 0.07 µM (≈ 0.0196 µg/mL); in experiment [6] it was 1.12 µM (≈ 0.313 µg/mL). Besides, the MIC90 in experiment [7] came to 1.12 µM (≈ 0.313 µg/mL); in experiment [8], 2.24 µM (≈ 0.626 µg/mL); in experiment [9], 0.14 µM (≈ 0.0391 µg/mL); in experiment [10], 0.28 µM (≈ 0.0782 µg/mL).

For `Cc1ccn2c(C(=O)NCc3cccc(F)c3)c(C)nc2c1`, the MIC90 in [1] was determined as 0.03 µM (≈ 0.00892 µg/mL); in [2], 0.06 µM (≈ 0.0178 µg/mL); in experiment [3], 0.13 µM (≈ 0.0387 µg/mL); in experiment [4], 0.06 µM (≈ 0.0178 µg/mL); in [5], 0.07 µM (≈ 0.0208 µg/mL); in experiment [6], 0.26 µM (≈ 0.0773 µg/mL). For the same compound, the MIC90 in experiment [7] was 0.06 µM (≈ 0.0178 µg/mL); in [8], 0.26 µM (≈ 0.0773 µg/mL); in experiment [9] it was 0.03 µM (≈ 0.00892 µg/mL); in experiment [10], 0.26 µM (≈ 0.0773 µg/mL).

As to `COc1cccc(CNC(=O)c2c(C)nc3cc(C)ccn23)c1`, the MIC90 is 0.02 µM (≈ 0.00619 µg/mL) in [1]; 0.06 µM (≈ 0.0186 µg/mL) in experiment [2]; ≤ 0.03 µM in experiment [3]; ≤ 0.03 µM in experiment [4]; 0.03 µM (≈ 0.00928 µg/mL) in experiment [5]; 0.13 µM (≈ 0.0402 µg/mL) in experiment [6]. Also, the MIC90 in experiment [7] amounted to 0.06 µM (≈ 0.0186 µg/mL); in [8], 1.01 µM (≈ 0.312 µg/mL); in [9] it was 0.02 µM (≈ 0.00619 µg/mL); in experiment [10], 0.13 µM (≈ 0.0402 µg/mL).
